This note sets out measurements from PMC11215771 (Journal of Medicinal Chemistry, 2024).

A short description of data set [1]: Fluorescence spectroscopy, sensitivity to BSA and Expi293F cells. Particulars: mock Expi293F cells in fluorobrite vs PBS alone.
Description: Emission and excitation spectra of all compounds were determined at a concentration of 33 nM in phosphate buffered saline (PBS) using an infinite 200pro (Tecan) with a resolution of 2 nm. […] For sensitivity assessment, we used PBS, PBS + BSA (0.05%), and Expi293F cells in fluorobrite (2 × 10^6 cells/mL).
Data set [2] deals with recombinant human BACE1 protein (amino acids 1–457, extracellular domain) (Homo sapiens, UniProt P56817). The data set is described as follows: Fluorescence correlation spectroscopy (FCS) with BACE1 ECD in solution.
Data set [3] deals with T1, endogenous BACE1 (Mus musculus, UniProt P56818).
T1 construct: from tissue; host or cells: mouse brain cryosections (hippocampus, cerebellum), C57BL/6J background, P16
Nature of the data set: Staining of endogenous BACE1 in brain slices. Particulars: 250 nM probe, BACE1+/+ vs BACE1–/– mice. From the text: Areas with high expression such as the hippocampal MFB[38] or cerebellar Purkinje cells[39],[40] are readily distinguished. However, all primary anti-BACE1 antibodies tested in our lab produced a significant background in samples of BACE1 knockout mice.[20],[23] […] We wondered if our new Alexa-C3 compounds could outperform existing probes in endogenous tissue. […] Close to the hilus, we depicted the MFB additionally at higher magnification (Figure 4B). […] From this set of data and from previous experiments using anti-BACE1 antibodies and SiR-BACE1 we calculated the ratio of the signal in the hilar region to the signal in the molecular layer (Figure 4C), since the molecular layer (red box in Figure 4C) is more affected by background fluorescence due to the relatively low BACE1 expression level.
(A) Images of the hippocampus depict the mossy fiber bundle (MFB) with high BACE1 expression with the intervening CA3 pyramidal cell layer (CA3) and proximal dentate gyrus (DG). […] The scale bar represents 200 μm. […]
For quantification of hippocampal BACE1 staining, mean intensities of the mossy fiber bundle were divided by the mean intensity of the molecular layer of the dentate gyrus. Mean intensities were calculated from rectangular regions of interest. In addition, analysis was performed on images of hippocampal BACE1 labeling with SiR-BACE1 recorded previously.[31]

In data set [4] the target is BACE-1 (mouse Protein, recombinant) (Mus musculus, UniProt P56818). The data set is described as follows: Nanotemper (Monolith NT.115) binding analysis.
Description: For binding analysis, the Monolith NT.115 (Nanotemper) was used. BACE-1 (mouse Protein, recombinant, life technologies, 50002-M08H-250, LCL10JA2204)) was dissolved in 50 mM HEPES/100 mM NaCl, pH 5 to a concentration of 20 μM. […] Samples were loaded on standard capillaries (Nanotemper, MO-K022) and measured in triplicate at 22 °C, using 1%/60% LED power for Alexa488/Alexa568 and 10% MST power. Fluorescence was plotted against protein concentrations.

pEC50, pKd: −log10 of the molar value. Where “and” joins values, the source holds several entries; their conditions need not be identical. Identical values can stand only once.

Chain of BACE-1 (mouse Protein, recombinant) (P56818 46-457 limits assumed): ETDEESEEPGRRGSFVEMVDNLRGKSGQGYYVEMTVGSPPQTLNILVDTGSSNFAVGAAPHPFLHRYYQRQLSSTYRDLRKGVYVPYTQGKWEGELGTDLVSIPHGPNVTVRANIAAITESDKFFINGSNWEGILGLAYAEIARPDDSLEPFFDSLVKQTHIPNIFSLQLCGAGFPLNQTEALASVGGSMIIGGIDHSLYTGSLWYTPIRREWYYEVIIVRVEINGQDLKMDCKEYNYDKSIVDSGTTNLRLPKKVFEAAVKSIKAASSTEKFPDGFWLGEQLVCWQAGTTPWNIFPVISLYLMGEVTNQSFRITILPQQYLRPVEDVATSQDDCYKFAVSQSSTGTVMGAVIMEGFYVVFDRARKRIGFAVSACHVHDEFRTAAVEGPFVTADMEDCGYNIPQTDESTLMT
Chain of recombinant human BACE1 protein (amino acids 1–457, extracellular domain) (P56817 22-457): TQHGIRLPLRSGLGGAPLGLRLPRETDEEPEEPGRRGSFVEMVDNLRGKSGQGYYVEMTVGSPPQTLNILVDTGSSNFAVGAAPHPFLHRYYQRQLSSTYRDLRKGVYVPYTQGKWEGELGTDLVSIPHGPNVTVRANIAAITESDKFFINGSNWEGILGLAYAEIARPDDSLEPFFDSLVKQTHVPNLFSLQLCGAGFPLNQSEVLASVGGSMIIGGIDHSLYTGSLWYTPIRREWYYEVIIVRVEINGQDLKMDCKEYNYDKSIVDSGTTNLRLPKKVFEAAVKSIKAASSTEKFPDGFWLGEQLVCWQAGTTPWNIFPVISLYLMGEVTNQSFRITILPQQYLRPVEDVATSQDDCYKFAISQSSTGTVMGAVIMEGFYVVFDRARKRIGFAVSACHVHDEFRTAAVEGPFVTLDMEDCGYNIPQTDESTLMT
T1 sequence (P56818 46-501): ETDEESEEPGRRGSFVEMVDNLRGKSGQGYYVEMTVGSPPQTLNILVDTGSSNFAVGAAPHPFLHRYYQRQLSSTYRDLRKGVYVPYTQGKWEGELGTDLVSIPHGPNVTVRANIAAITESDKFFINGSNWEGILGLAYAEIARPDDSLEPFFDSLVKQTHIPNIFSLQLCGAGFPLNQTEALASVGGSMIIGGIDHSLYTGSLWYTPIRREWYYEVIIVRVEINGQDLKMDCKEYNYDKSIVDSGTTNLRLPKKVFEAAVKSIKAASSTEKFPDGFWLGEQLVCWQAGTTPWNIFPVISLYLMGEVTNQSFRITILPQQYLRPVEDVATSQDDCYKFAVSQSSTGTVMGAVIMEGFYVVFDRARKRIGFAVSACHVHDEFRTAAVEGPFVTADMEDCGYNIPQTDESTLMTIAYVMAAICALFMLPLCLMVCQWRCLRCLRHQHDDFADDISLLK

Turning to `C[C@@H](NC(=O)c1cc(C(=O)N[C@@H](Cc2ccccc2)[C@H](O)CNC2CC2)cc(N(C)S(=O)(=O)CCCNC(=O)CCCCCC2(C)C(/C=C/C=C/C=C3/N(CCCS(=O)(=O)O)c4ccc(S(=O)(=O)O)cc4C3(C)C)=[N+](CCCS(=O)(=O)[O-])c3ccc(S(=O)(=O)O)cc32)c1)c1ccccc1` (some centres unmarked), the “increase of fluorescent output in presence of Expi293F cells” value in data set [1] is “+8%”. For the same molecule, the “additional slow diffusing component with BACE1 ECD” value in data set [2] (100 nM probe with BACE1 ECD, pH 5) is listed as “no additional slow component was observed”. Moreover, in data set [3], the “labeling of endogenous BACE1 in brain slices” value is recorded as “unsuccessful”.
As usually defined, the pKd is −log10 of the Kd, conventionally taken in molar units. The term pEC50 denotes −log10 of the EC50, conventionally taken in molar units. For `C[C@@H](NC(=O)c1cc(C(=O)N[C@@H](Cc2ccccc2)[C@H](O)CNC2CC2)cc(N(C)S(=O)(=O)CCCNC(=O)c2ccc(C(=O)O)c(-c3c4ccc(=N)c(S(=O)(=O)O)c-4oc4c(S(=O)(=O)O)c(N)ccc34)c2)c1)c1ccccc1` [2-(6-Amino-3-iminio-4,5-disulfo-3H-xanthen-9-yl)-4-((3-(N-(3-(((2S,3R)-4-(cyclopropylamino)-3-hydroxy-1-phenylbutan-2-yl)carbamoyl)-5-(((R)-1-phenylethyl)carbamoyl)phenyl)-N-methylsulfamoyl)propyl)carbamoyl)benzoate], the “increase of fluorescent output in presence of Expi293F cells” value in data set [1] is reported as “+25%”. Moreover, the pKd in data set [4] was 6.00. Further, the “fluorescence reading, single replicates” value in data set [4] (BACE1 concentration 0.305 (unit not given; 0.3–5000 nM), triplicate) is 995.235 and 994.451 and 995.188; in data set [4] (BACE1 concentration 0.61, triplicate), 995.092 and 995.228 and 995.025; in data set [4] (BACE1 concentration 1.221, triplicate), 995.123 and 995.217 and 995.055; in data set [4] (BACE1 concentration 2.441, triplicate) it was 994.777 and 994.504 and 994.766; in data set [4] (BACE1 concentration 4.883, triplicate), 994.407 and 994.774 and 995.083; in data set [4] (BACE1 concentration 9.766, triplicate) it was 995.092 and 994.263 and 994.945. Moreover, the “fluorescence reading, single replicates” value in data set [4] (BACE1 concentration 19.531, triplicate) is 994.925 and 994.824 and 995.417; in data set [4] (BACE1 concentration 39.062, triplicate), 994.869 and 994.87 and 995.275; in data set [4] (BACE1 concentration 78.125, triplicate) it was 995.397 and 995.08 and 995.109; in data set [4] (BACE1 concentration 156.25, triplicate) it was 995.324 and 994.996 and 995.206; in data set [4] (BACE1 concentration 312.5, triplicate), 995.935 and 995.418 and 995.988; in data set [4] (BACE1 concentration 625, triplicate), 996.951 and 996.59 and 996.649. Moreover, the “fluorescence reading, single replicates” value in data set [4] (BACE1 concentration 1250, triplicate) was 999.327 and 998.59 and 999.026; in data set [4] (BACE1 concentration 2500, triplicate), 1002.784 and 1002.705 and 1002.138; in data set [4] (BACE1 concentration 5000, triplicate), 1000.96 and 1001.179 and 1001.396. Also, the negative logarithm of the EC50 (pEC50) in data set [2] was 8.01. In addition, the “diffusion time constant of the second (BACE1-bound, slow) population” value in data set [2] (100 nM probe with BACE1 ECD, pH 5, mean ± SEM, n = 3 preparations) stood at 310 ± 10 μs. In addition, the “labeling of endogenous BACE1 in brain slices” value in data set [3] is given as “labeled BACE1 in a typical pattern”.
